Experimental findings from patent publication US12582647B2, “Systems and methods for treating an opioid-induced adverse pharmacodynamic response” (Purdue Pharma L.P., priority 2012, dated 2026) are described below.

Data set [1] has as its system acute thermal pain in the rat. Briefly: Rat tail flick assay (response latency, % MPE).
Method: Morphine sulphate (1-10 mg/kg) was dissolved in 0.9% normal saline solution (NSS)(vehicle) and administered SC 1 hour prior to testing against vehicle. Data were analyzed by a two-way ANOVA using a Bonferroni post-hoc test, *P<0.05, ***P<0.001.
Morphine sulphate (1-10 mg/kg) was dissolved in 0.9% normal saline solution (NSS)(vehicle) and administered SC 1 hour prior to testing against vehicle. % MPE=Percent of Maximum Possible Effect. % MPE=(test latency-baseline)/(cutoff(20 s)-baseline)*100. Data were analyzed by a two-way ANOVA using a Bonferroni post-hoc test, *P<0.05, **P<0.01, ***P<0.001.
Morphine sulphate (10 mg/kg) was dissolved in 0.9% NSS (vehicle). The formulations were administered SC 1 hour prior to testing against vehicle. Data were analyzed by a two-way ANOVA using a Bonferroni multiple comparisons test, *P<0.05, ***P<0.001.
Morphine sulphate (10 mg/kg) was dissolved in 0.9% NSS (vehicle). The formulations were administered SC 1 hour prior to testing against vehicle. % MPE=Percent Maximum Possible Effect. % MPE=(test latency-baseline)/(cutoff(20 s)-baseline)*100. Data were analyzed by a two-way ANOVA using a Bonferroni multiple comparisons test, ***P<0.001.
The positive control, morphine sulfate in 0.9% NS was administered SC 1 hour prior to testing. Rats were assessed the day prior (BL) and then 1, 3 and 5 hours post-dosing. Tail Flick was set to 40 intensity and cutoff 20 seconds. Data were analyzed by a two-way ANOVA using a Bonferroni Multiple Comparisons Test, where *P<0.05,***P<0.001 and ****P<0.0001. Data are represented as the means+S.E.M of two combined studies.
Oxycodone hydrochloride (0.3-5 mg/kg) was dissolved in 0.9% normal saline solution (NSS)(vehicle) and administered SC 1 hour prior to testing against vehicle. Data were analyzed by a two-way ANOVA using a Bonferroni multiple comparisons test, ****P<0.001.
Oxycodone hydrochloride (0.3-5 mg/kg) was dissolved in 0.9% normal saline solution (NSS)(vehicle) and administered SC 1 hour prior to testing against vehicle. % MPE=Percent Maximum Possible Effect. % MPE=(test latency-baseline)/(cutoff(20 s)-baseline)*100. Data were analyzed by a two-way ANOVA using a Bonferroni multiple comparisons test, ****P<0.001.
Oxycodone HCl and vehicle were administered SC 1 hour prior to testing. Rats were assessed one day prior (BL) and then 1, 3 and 5 hours post-oxycodone administration. The tail flick was set to an intensity of 40 and the cutoff was 20 seconds. Oxycodone was dissolved in 0.9% (vehicle). […] Data were analyzed by a two-way ANOVA followed by the Bonferroni Multiple Comparisons Test where, *P<0.05 and ****P<0.001.
Oxycodone HCl was administered PO 1 hour prior to testing, while morphine sulfate, the positive control, was administered SC 1 Hour prior to testing. Behavior was assessed the day prior (BL) to dosing, and then 1, 3, 5 and 24 hours post-compound administration. The tail flick was set to an intensity of 40 and 20 seconds was used as the cutoff. Oxycodone was dissolved in water (vehicle), while morphine was dissolved in 0.9% NS. Data were analyzed by a two-way ANOVA using a Bonferroni Multiple Comparisons Test, where *P<0.05, **P<0.01, ***P<0.001 and ****P<0.0001.
Rats were assessed for tail flick latency the day prior to dosing, then 1.5, 3 and 5 hours post-morphine administration. Data were analyzed by a two-way ANOVA using the Bonferroni Multiple Comparisons Test, where ****P<0.0001 compared to vehicle+vehicle. Data are represented as the means+S.E.M.
Rats were assessed for thermal latency 1.5, 3 and 5 hours post-morphine administration. % MPE=Percent Maximum Possible Effect. % MPE=(test latency-baseline)/(cutoff(20 s)-baseline)*100. Data were analyzed by a two-way ANOVA using a Bonferroni multiple comparisons test for post-hoc analysis where *P<0.05 and ****P<0.001. Data are represented as the means+SEM.
Rats were tested 1 hour after oxycodone injection.
The subject of a further data set is rat GI transit. Briefly: Charcoal meal GI transit in the rat, single agent. Conditions: for GI transit: % of the small intestine travelled by a charcoal meal: vs vehicle.
Data set [2] deals with acute thermal pain in the rat. Briefly: Rat hot plate assay (response latency, % MPE).
Method: Morphine sulphate (1-10 mg/kg) was dissolved in 0.9% normal saline solution (NSS)(vehicle) and administered SC 1 hour prior to testing against vehicle. Data were analyzed by a two-way ANOVA using a Bonferroni Multiple Comparison Test,***P<0.001.
Morphine sulphate (1-10 mg/kg) was dissolved in 0.9% normal saline solution (NSS)(vehicle) and administered SC 1 hour prior to testing against vehicle. % MPE=Percent Maximum Possible Effect. % MPE=(test latency-baseline)/(cutoff-baseline). Data was analyzed using a Bonferroni Multiple Comparison Test,***P<0.001.
Morphine sulphate (10 mg/kg), the positive control, was dissolved in 0.9% NSS (vehicle). The formulations were administered SC 1 hour prior to testing against vehicle. Data were analyzed by a two-way ANOVA using a Bonferroni multiple comparisons test, where *P<0.05 and ***P <0.001. Data are represented as the means+S.E.M.
Morphine sulphate (10 mg/kg) was dissolved in 0.9% NSS (vehicle). The formulations were administered SC 1 hour prior to testing against vehicle. % MPE=Percent Maximum Possible Effect. % MPE=(test latency-baseline)/(cutoff (30 s)-baseline). Data were analyzed by a two-way ANOVA using Bonferroni Multiple Comparisons test for post-hoc analysis, where *P<0.05 and ***P<0.001. Data are represented as the means+SEM.
The positive control, morphine sulfate in 0.9% NS, was administered SC 1 hour prior to testing. Rats were assessed one day prior (BL) and then 1, 3 and 5 hours post-dosing. Hot Plate was set to 52° C. and cutoff was 30 seconds. Data were analyzed by a two-way ANOVA using a Bonferroni Multiple Comparisons Test, where *P<0.05, ***P<0.001 and ****P<0.0001 versus vehicle. Data are represented as the means+S.E.M from two combined studies.
Oxycodone hydrochloride (0.3-5 mg/kg) was dissolved in 0.9% normal saline solution (NSS)(vehicle) and administered SC 1 hour prior to testing against vehicle. Hot plate was set to 52° C. and cutoff was 30 seconds. Data were analyzed by a two-way ANOVA using a Bonferroni multiple comparisons test, where ****P<0.0001. Data are represented as the means+S.E.M.
Compound was administered SC 1 hour prior to testing. Oxycodone hydrochloride (0.3-5 mg/kg) was dissolved in 0.9% normal saline solution (NSS)(vehicle) and administered SC 1 hour prior to testing against vehicle. Hot plate was set to 52° C. and cutoff was 30 seconds. % MPE=. Percent Maximum Possible Effect. % MPE=(test latency-baseline)/(cutoff (30 s)-baseline). Data were analyzed by a two-way ANOVA using Bonferroni Multiple Comparisons test for post-hoc analysis, ****P<0.000. Data are represented as the means+SEM.
Oxycodone HCl was administered SC 1 hour prior to testing. Thermal latency was assessed the day prior (BL) and then 1, 3 and 5 hours post-oxycodone dosing. The hotplate was set to 52° C. and the cutoff was 30 seconds. Oxycodone was dissolved in 0.9% NS (vehicle). […] Data were analyzed by a two-way ANOVA using the Bonferroni Multiple Comparisons test for post-hoc analysis where, ***P<0.001. Data are represented as the means+SEM.
Oxycodone HCl was administered PO 1 hour prior to testing, while morphine sulfate, the positive control, was administered SC 1 hour prior to testing. Behavior was assessed the day prior (BL) and then 1, 3, 5 and 24 hours post-compound administration. The hot plate was set to 52° C. and the cutoff was 30 seconds. Oxycodone was dissolved in water (vehicle), while morphine sulfate was dissolved in 0.9% NS. Data were analyzed by a two-way ANOVA using a Bonferroni Multiple Comparisons Test, where ****P<0.0001.
Rats were assessed for thermal latency the day prior to dosing, then 1.5, 3 and 5 hours post-morphine administration. Data were analyzed by a two-way ANOVA using the Bonferroni Multiple Comparisons Test, where ****P<0.0001 compared to vehicle+vehicle.
For the next data set, the system named is rat gastric emptying. In words: Stomach weight after charcoal meal (gastric emptying). In kind it is in vivo, male Sprague-Dawley rats. Conditions: morphine sulfate 1-10 mg/kg SC 0.5 h before charcoal meal, vs vehicle; FIG. 1B. As for the experimental part: Morphine sulfate (1-10 mg/kg) or 0.9% normal saline (vehicle) was administered SC to the test subjects. 0.5 hour later, a charcoal meal (1 ml/100 grams) was administered PO to the test subjects. One hour after the charcoal meal, the test subjects were euthanized by CO2 and the stomachs were removed and weighed. Data were analyzed using a one-way ANOVA followed by the Dunnett's Multiple Comparisons test where *P<0.05, **P<0.01 and ***P<0.001. […] This effect was dose dependent with a greater magnitude of effect observed with increasing dose.

Method for rat GI transit: Rats were dosed with Oxycodone HCl/Oxy or vehicle (water) PO once daily for 5 days (chronic). Additional groups were dosed only once on day 5 (acute). […] One hour after charcoal, all rats were euthanized by CO2 and the GI tract was removed from the stomach to the cecum. The length of the small intestine and the distance (cm) to the leading edge of charcoal was recorded. Data were analyzed using a one-way ANOVA with Bonferonni's Multiple Comparison Test where * P<0.05, ****P<0.0001 vs. vehicle (chronic), ###vs. oxycodone (acute). Data are represented as the means+S.E.M.

For the compound `COc1ccc2c3c1O[C@H]1C(=O)CC[C@@]4(O)[C@@H](C2)N(C)CC[C@]314.Cl` [oxycodone, oxycodone hydrochloride], the rats found dead is reported as 4 out of 10 in data set [1] (oxycodone HCl 10 mg/kg SC dosing group, at the 3 hr time point) and 4 out of 10 in data set [2] (oxycodone HCl 10 mg/kg SC, at the 3 hr time point). Moreover, the “tail flick MED (mitigates acute pain)” value was determined as 10 mg/kg in data set [1] (oxycodone HCl PO, FIG. 9D) and 3 mg/kg in data set [1] (oxycodone HCl SC, FIG. 9C). In data set [1] (oxycodone hydrochloride 0.3-5 mg/kg SC 1 h prior to testing, FIG. 9A), the “tail flick latency to nocifensive response” value is recorded as “provides analgesia”. For the same compound, the “tail flick % of the maximal possible effect (% MPE)” value in data set [1] (oxycodone hydrochloride 0.3-5 mg/kg SC 1 h prior to testing, FIG. 9B) was “provides analgesia”. For the same compound, the “tolerance to inhibition of GI transit” value in the data set on rat GI transit (oxycodone HCl PO once daily for 5 days (chronic) vs single dose on day 5 (acute), FIG. 7D) is “produces some tolerances to its acute effect on the inhibition of GI transit”. Moreover, the “GI transit: % of the small intestine travelled by a charcoal meal” value in the data set with rat GI transit (oxycodone hydrochloride 0.3-5 mg/kg SC 1 h before charcoal meal, FIG. 7A) is recorded as “decreases gastrointestinal transit”. In addition, the “hot plate MED (mitigates acute pain)” value in data set [2] (oxycodone HCl PO, FIG. 8D) is 10 mg/kg; in data set [2] (oxycodone HCl SC, FIG. 8C) it was 3 mg/kg. Also, the “hot plate latency to nocifensive response” value in data set [2] (oxycodone hydrochloride 0.3-5 mg/kg SC 1 h prior to testing, FIG. 8A) is on record as “provides analgesia”. Moreover, the “hot plate % of the maximal possible effect (% MPE)” value in data set [2] (oxycodone hydrochloride 0.3-5 mg/kg SC 1 h prior to testing, FIG. 8B) is reported as “provides analgesia”.

As to `CN1CC[C@]23c4c5ccc(O)c4O[C@H]2[C@@H](O)C=C[C@H]3[C@H]1C5.O=S(=O)(O)O` [morphine, morphine sulphate], the “tail flick latency to nocifensive response” value in data set [1] (morphine sulphate 1-10 mg/kg SC 1 h prior to testing, FIG. 3A) is on record as “provides analgesia”. The “tail flick % of the maximal possible effect (% MPE)” value in data set [1] (morphine sulphate 1-10 mg/kg SC 1 h prior to testing, FIG. 3B) was “provides analgesia”. Further, in the data set on rat GI transit (morphine sulfate 1-10 mg/kg SC 0.5 h before charcoal meal, FIG. 1A), the “GI transit: % of the small intestine travelled by a charcoal meal” value was “decreases gastrointestinal transit”. The “stomach weight (gastric emptying)” value in the data set on rat gastric emptying is reported as “increased stomach weight due to delayed gastric emptying”. Moreover, in data set [2] (morphine sulphate 1-10 mg/kg SC 1 h prior to testing, FIG. 2A), the “hot plate latency to nocifensive response” value is recorded as “provides analgesia”. Besides, in data set [2] (morphine sulphate 1-10 mg/kg SC 1 h prior to testing, FIG. 2B), the “hot plate % of the maximal possible effect (% MPE)” value is “provides analgesia”.
